{"source": "patent US20240400577A1", "about": "“MODULATORS OF PROTEIN KINASES” (VIBLIOME THERAPEUTICS, LLC, priority 2021, published 2024)", "test_in_all_cases": "Kinase panel enzymatic inhibition assay (Nanosyn)", "format_in_all_cases": "biochemical", "key": {"AXL": {"biological_target": "T1, AXL (Homo sapiens, UniProt P30530)", "T1 construct": "Nanosyn (contract laboratory that ran the panel)", "T1 sequence (P30530 26-894)": "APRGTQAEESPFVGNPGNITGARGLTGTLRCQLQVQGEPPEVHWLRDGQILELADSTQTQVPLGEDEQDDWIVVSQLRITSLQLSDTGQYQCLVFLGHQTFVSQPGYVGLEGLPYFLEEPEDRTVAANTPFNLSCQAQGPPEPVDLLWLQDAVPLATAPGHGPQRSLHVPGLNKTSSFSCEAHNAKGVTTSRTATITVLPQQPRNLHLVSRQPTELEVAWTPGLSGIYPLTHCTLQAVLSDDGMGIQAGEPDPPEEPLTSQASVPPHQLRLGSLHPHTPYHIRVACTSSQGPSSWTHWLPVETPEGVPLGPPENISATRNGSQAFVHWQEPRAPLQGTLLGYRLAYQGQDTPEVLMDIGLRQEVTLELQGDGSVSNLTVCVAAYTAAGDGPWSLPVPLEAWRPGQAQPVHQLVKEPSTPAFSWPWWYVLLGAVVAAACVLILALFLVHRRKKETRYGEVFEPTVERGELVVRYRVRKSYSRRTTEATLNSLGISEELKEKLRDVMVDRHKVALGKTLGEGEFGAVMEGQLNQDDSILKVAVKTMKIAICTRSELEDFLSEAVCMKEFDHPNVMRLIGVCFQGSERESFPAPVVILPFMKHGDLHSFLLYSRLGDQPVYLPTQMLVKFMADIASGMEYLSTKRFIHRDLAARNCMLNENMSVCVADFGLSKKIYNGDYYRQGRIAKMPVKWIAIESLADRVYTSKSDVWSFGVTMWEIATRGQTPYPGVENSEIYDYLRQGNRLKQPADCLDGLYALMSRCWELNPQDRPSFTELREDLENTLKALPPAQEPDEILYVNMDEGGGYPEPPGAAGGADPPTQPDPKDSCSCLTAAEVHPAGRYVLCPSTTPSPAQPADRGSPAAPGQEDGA", "details": "ATP at Km; 30-minute pre-incubation; read-out: kinase inhibition in terms of IC50, AXL", "procedure,_shortened": "(§1)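 Enzymatic inhibition measured within a panel of at least 300 kinases, using a validated format such as Caliper LabChip mobility shift, ADP detection or time-resolved fluorescence. Compounds tested at 5 μM with ATP at each kinase's Km, after a 30-minute pre-incubation. Values given as percent inhibition or IC50.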"}, "JAK3": {"biological_target": "T2, JAK3 (Homo sapiens, UniProt P52333)", "T2 construct": "Nanosyn (contract laboratory that ran the panel)", "T2 sequence (P52333 1-1124)": "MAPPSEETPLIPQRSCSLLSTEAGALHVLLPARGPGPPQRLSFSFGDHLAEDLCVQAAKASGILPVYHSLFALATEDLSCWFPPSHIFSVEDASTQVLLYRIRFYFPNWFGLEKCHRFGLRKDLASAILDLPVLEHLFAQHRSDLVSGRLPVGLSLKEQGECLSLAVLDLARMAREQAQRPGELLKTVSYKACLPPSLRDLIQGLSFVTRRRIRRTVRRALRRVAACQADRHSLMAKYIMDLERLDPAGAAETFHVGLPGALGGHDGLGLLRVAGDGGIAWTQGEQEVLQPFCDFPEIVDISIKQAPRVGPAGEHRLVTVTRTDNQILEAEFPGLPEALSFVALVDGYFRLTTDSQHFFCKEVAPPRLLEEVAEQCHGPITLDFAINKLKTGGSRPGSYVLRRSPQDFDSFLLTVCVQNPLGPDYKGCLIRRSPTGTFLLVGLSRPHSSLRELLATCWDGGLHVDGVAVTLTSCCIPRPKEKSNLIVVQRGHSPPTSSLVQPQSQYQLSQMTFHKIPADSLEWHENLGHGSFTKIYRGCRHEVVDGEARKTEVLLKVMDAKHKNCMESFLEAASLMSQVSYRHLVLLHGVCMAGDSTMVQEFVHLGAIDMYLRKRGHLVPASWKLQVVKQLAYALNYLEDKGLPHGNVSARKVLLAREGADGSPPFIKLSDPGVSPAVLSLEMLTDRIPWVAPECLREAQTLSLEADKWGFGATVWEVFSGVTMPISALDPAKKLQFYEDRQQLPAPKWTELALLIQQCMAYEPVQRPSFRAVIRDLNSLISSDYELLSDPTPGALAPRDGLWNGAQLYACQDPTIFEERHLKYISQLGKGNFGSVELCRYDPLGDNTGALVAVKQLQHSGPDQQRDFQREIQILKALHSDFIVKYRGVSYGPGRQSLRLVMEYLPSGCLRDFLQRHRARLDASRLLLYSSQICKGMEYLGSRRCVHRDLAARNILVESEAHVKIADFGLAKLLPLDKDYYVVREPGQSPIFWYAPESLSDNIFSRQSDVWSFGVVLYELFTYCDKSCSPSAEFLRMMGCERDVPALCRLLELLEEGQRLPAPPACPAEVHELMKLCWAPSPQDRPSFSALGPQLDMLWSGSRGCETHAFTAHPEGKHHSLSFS", "details": "ATP at Km; 30-minute pre-incubation; read-out: kinase inhibition in terms of IC50, JAK3", "procedure,_shortened": "as §1"}, "TAK1-TAB1": {"biological_target": "T3, TAK1-TAB1 (Homo sapiens, UniProt O43318)", "T3 construct": "purchased Nanosyn", "T3 sequence (O43318 with tags, fused parts or gaps limits assumed)": "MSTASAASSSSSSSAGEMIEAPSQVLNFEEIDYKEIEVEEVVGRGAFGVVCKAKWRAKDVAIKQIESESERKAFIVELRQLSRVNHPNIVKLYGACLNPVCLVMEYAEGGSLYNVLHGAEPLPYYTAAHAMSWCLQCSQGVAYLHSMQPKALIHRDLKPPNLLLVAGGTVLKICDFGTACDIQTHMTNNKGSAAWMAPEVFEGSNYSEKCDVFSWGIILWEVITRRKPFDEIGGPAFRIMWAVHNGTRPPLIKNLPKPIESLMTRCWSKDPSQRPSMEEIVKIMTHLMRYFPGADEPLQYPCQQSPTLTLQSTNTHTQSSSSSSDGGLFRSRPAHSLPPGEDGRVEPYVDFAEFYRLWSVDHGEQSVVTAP", "details": "ATP at Km; 30-minute pre-incubation; read-out: kinase inhibition in terms of IC50, TAK1-TAB1", "procedure,_shortened": "as §1"}}, "data": [{"compound": "COc1cc2nccc(Oc3ccc(NC(=O)c4cc(S(C)(=O)=O)n(-c5ccc(F)cc5)n4)c(F)c3)c2cc1OC", "note": "[Ex71, N-(4-((6,7-dimethoxyquinolin-4-yl)oxy)-2-fluorophenyl)-1-(4-fluorophenyl)-5-(methylsulfonyl)-1H-pyrazole-3-carboxamide]", "values": [{"measurement": "IC50", "setting": "AXL", "value": "< 0.5", "unit": "µM"}, {"measurement": "IC50", "setting": "JAK3", "value": "≥ 10", "unit": "µM"}, {"measurement": "IC50", "setting": "TAK1-TAB1", "value": "≥ 10", "unit": "µM"}]}, {"compound": "COc1cc2nccc(Oc3ccc(NC(=O)c4cc(S(C)(=O)=O)n(-c5ccc(F)cc5)n4)cc3)c2cc1OC", "note": "[Ex72, N-(4-((6,7-dimethoxyquinolin-4-yl)oxy)phenyl)-1-(4-fluorophenyl)-5-(methylsulfonyl)-1H-pyrazole-3-carboxamide]", "values": [{"measurement": "IC50", "setting": "AXL", "value": "< 0.5", "unit": "µM"}, {"measurement": "IC50", "setting": "JAK3", "value": "≥ 10", "unit": "µM"}, {"measurement": "IC50", "setting": "TAK1-TAB1", "value": "≥ 10", "unit": "µM"}]}, {"compound": "COc1cc2nccc(Oc3ccc(NC(=O)c4cc(S(C)(=O)=O)n(-c5ccc(F)cc5)n4)cc3F)c2cc1OC", "note": "[Ex73, N-(4-((6,7-dimethoxyquinolin-4-yl)oxy)-3-fluorophenyl)-1-(4-fluorophenyl)-5-(methylsulfonyl)-1H-pyrazole-3-carboxamide]", "values": [{"measurement": "IC50", "setting": "AXL", "value": "< 0.5", "unit": "µM"}, {"measurement": "IC50", "setting": "JAK3", "value": "≥ 10", "unit": "µM"}, {"measurement": "IC50", "setting": "TAK1-TAB1", "value": "≥ 10", "unit": "µM"}]}]}
